Molecules are shown by their SMILES.

Usually IC50 stands for the concentration at which inhibition is half-maximal.

For assay [1], the target named is T1, NAD-dependent protein deacetylase sirtuin-2 (Homo sapiens, UniProt Q8IXJ6).
T1 sequence (Q8IXJ6 whole entry): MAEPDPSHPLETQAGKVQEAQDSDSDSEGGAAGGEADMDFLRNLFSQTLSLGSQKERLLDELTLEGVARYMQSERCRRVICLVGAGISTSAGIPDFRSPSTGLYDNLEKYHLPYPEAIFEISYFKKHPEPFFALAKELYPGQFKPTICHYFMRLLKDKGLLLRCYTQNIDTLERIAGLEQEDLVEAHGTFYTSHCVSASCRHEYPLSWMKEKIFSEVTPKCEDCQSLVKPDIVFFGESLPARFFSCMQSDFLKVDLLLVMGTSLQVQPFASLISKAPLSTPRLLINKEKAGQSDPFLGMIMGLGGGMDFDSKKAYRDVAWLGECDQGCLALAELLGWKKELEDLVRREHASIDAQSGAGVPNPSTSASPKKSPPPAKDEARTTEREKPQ
In words: Inhibition of human His6-tagged SIRT2 after 12 mins by HPLC analysis in presence of beta-NAD.

In assay [2] the target is T2, NAD-dependent protein deacetylase sirtuin-1 (Homo sapiens, UniProt Q96EB6).
T2 sequence (Q96EB6 whole entry): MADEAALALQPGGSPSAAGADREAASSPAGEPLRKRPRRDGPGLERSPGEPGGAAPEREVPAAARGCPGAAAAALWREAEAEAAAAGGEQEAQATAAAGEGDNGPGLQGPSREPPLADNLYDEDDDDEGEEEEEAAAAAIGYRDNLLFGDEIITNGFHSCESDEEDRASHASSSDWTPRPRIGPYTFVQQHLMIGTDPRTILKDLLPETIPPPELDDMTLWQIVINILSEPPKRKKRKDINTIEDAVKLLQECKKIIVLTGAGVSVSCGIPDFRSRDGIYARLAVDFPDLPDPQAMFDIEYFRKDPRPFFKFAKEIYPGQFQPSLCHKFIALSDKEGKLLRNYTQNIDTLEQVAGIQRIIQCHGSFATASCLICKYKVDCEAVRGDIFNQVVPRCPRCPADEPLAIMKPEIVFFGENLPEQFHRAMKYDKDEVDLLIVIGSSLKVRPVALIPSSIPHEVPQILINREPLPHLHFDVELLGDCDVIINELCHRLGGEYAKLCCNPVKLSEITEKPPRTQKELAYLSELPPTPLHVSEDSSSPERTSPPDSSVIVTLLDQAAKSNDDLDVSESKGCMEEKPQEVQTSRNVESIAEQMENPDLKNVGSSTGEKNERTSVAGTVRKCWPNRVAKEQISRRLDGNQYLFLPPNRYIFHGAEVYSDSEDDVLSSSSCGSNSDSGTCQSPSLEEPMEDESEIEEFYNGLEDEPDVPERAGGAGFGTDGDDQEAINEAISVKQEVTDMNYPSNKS
Description: Inhibition of human His6 or GST-tagged SIRT1 after 10 mins by HPLC analysis in presence of beta-NAD.

Assay [3] deals with T3, NAD-dependent protein deacetylase sirtuin-3, mitochondrial (Homo sapiens, UniProt Q9NTG7).
T3 sequence (Q9NTG7 whole entry): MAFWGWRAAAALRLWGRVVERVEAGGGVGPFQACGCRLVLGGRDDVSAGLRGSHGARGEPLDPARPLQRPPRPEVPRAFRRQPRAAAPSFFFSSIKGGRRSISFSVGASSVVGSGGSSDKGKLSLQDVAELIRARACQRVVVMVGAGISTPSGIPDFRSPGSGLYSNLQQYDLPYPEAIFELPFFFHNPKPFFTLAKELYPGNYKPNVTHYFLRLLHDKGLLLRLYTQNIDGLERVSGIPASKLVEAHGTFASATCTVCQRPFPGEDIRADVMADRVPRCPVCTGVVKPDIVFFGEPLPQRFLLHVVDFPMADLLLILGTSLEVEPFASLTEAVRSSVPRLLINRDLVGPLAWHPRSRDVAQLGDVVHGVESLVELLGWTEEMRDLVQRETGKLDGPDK
In words: Inhibition of human His6-tagged SIRT3 after 10 mins by HPLC analysis in presence of beta-NAD.

The target in assay [4] is T1, NAD-dependent protein deacetylase sirtuin-2. In words: Inhibition of human His6-tagged SIRT2 after 12 mins by Dixon plot analysis in presence of beta-NAD.
For assay [5], the target named is T3, NAD-dependent protein deacetylase sirtuin-3, mitochondrial. Description: Inhibition of human His6-tagged SIRT3 after 10 mins by Dixon plot analysis in presence of beta-NAD.
The species entered for assay [6] is Homo sapiens. Description: Selectivity ratio of IC50 for human His6 or GST-tagged SIRT1 to IC50 for human His6-tagged SIRT3.
The target of assay [7] is NAD-dependent protein deacylase sirtuin-6 (Homo sapiens, UniProt Q8N6T7). In words: Inhibition of human GST-tagged SIRT6 after 12 mins by HPLC analysis in presence of beta-NAD.
Assay [8] is filed under the species Homo sapiens. In words: Selectivity ratio of IC50 for human His6-tagged SIRT2 to IC50 for human His6-tagged SIRT3.
In assay [9] the target is T2, NAD-dependent protein deacetylase sirtuin-1. In words: Inhibition of human His6 or GST-tagged SIRT1 after 10 mins by Dixon plot analysis in presence of beta-NAD.
Assay [10] concerns the target NAD-dependent protein deacylase sirtuin-5, mitochondrial (Homo sapiens, UniProt Q9NXA8). Description: Inhibition of human GST-tagged SIRT5 after 5 mins by HPLC analysis in presence of beta-NAD.

Chain of NAD-dependent protein deacylase sirtuin-5, mitochondrial (Q9NXA8 whole entry): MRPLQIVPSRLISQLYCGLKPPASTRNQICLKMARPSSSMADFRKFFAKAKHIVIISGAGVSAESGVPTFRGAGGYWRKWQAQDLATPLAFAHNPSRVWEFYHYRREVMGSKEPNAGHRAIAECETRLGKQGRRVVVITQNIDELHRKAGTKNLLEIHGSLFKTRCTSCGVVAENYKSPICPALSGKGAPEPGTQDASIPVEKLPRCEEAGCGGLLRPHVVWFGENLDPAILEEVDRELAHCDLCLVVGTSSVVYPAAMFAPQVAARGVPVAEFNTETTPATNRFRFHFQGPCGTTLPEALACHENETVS
Chain of NAD-dependent protein deacylase sirtuin-6 (Q8N6T7 whole entry): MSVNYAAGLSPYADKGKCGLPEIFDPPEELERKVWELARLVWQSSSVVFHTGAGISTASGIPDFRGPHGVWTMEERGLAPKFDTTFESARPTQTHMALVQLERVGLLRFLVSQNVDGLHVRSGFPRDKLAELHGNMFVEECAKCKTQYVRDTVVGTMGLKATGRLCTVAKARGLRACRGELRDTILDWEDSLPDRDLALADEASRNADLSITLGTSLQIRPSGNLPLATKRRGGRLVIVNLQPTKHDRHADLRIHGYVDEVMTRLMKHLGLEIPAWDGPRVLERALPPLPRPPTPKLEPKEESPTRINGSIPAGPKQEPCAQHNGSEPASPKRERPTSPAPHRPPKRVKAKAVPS

In the case of `CC(=O)NCCCC[C@H](NC(C)=O)C(=O)N[C@@H](CCCCNC(C)=S)C(=O)N[C@@H](Cc1ccc(-c2ccccc2)cc1)C(N)=O`, the IC50 in [1] was 3.92 µM; in [2], 2.4 µM; in [3], 3.2 µM.
Turning to `CC(=O)NC[C@H](NC(=O)[C@H](CCCCNC(C)=S)NC(=O)[C@H](Cc1ccc2ccccc2c1)NC(C)=O)C(N)=O`, the IC50 was 17.8 µM in assay [4]; 1.91 µM in assay [5]; 307 µM in [7]; 18.9 µM in assay [9]; 2000 µM in assay [10]. In addition, the Ratio IC50 came out at 9.9 in the assay filed under Homo sapiens [6] and 9.3 in the assay listed under Homo sapiens [8].
Take `CCCC[C@H](NC(=O)[C@H](CCCCNC(C)=S)NC(=O)[C@H](CCCCNC(C)=O)NC(C)=O)C(N)=O`: the values for the IC50 in assay [1] and in [2] were 5.1 µM and 0.63 µM, respectively.
`CCC[C@H](NC(C)=O)C(=O)N[C@@H](CCCCNC(C)=S)C(=O)N[C@@H](CCCCNC(C)=O)C(N)=O`: the values for the IC50 in assay [1], in assay [2] and in assay [3] were 7.71 µM, 10.7 µM and 2.1 µM, respectively.
Regarding `CCC[C@H](NC(=O)[C@H](CCCCNC(C)=S)NC(=O)[C@H](CCCCNC(C)=O)NC(C)=O)C(N)=O`, the IC50 in assay [1] came to 1.38 µM; in [2] it was 2.85 µM.
With `CCCC[C@H](NC(C)=O)C(=O)N[C@@H](CCCCNC(C)=S)C(=O)N[C@@H](CCCCNC(C)=O)C(N)=O`, the IC50 in assay [1] turned out to be 0.81 µM; in assay [2], 2.78 µM.
As to `CC(=O)NCCCC[C@H](NC(=O)[C@H](CCCCNC(C)=S)NC(=O)[C@H](Cc1csc2ccccc12)NC(C)=O)C(N)=O`, the IC50 in assay [4] was determined as 14.5 µM; in [5], 1.44 µM; in assay [9], 14.4 µM.
With `CC(=O)NCCCC[C@H](NC(=O)[C@H](CCCCNC(C)=S)NC(=O)[C@H](CCc1ccccc1)NC(C)=O)C(N)=O`, the 50% inhibitory concentration (IC50) came to 5.52 µM in assay [1] and 3.65 µM in [2].
Take `CC(=O)NCCCC[C@H](NC(C)=O)C(=O)N[C@@H](CCCCNC(C)=S)C(=O)N[C@@H](CNC(C)=O)C(N)=O`: the IC50 in assay [1] is 1.51 µM; in assay [2], 2.32 µM; in [3], 0.36 µM.
With `CC[C@H](NC(=O)[C@H](CCCCNC(C)=S)NC(=O)[C@H](CCCCNC(C)=O)NC(C)=O)C(N)=O`, the IC50 in [1] was 1.41 µM; in [2], 1.96 µM; in [3] it was 1.1 µM.
On to `CC(=O)NC[C@H](NC(=O)[C@H](CCCCNC(C)=S)NC(=O)[C@H](Cc1ccc(-c2ccccc2)cc1)NC(C)=O)C(N)=O`, for which the figures for the IC50 in [1], in assay [2] and in assay [3] were 8.32 µM, 6.6 µM and 1.62 µM, respectively. Further, the Ratio IC50 in the assay listed under Homo sapiens [6] worked out at 4.1; in the assay filed under Homo sapiens [8], 5.1.
For `CC(=O)NC[C@H](NC(=O)[C@H](CCCCNC(C)=S)NC(=O)[C@H](Cc1csc2ccccc12)NC(C)=O)C(N)=O` the same measures were 8.75 µM, 9.6 µM, 1.75 µM, 5.5 and 5.
Take `CC[C@H](NC(C)=O)C(=O)N[C@@H](CCCCNC(C)=S)C(=O)N[C@@H](CCCCNC(C)=O)C(N)=O`: the figures for the IC50 in assay [1] and in assay [2] were 1.34 µM and 2.13 µM, respectively.
With `CC(=O)NCCCC[C@H](NC(C)=O)C(=O)N[C@@H](CCCCNC(C)=S)C(=O)N[C@@H](Cc1csc2ccccc12)C(N)=O`, the results for the IC50 in [1], in assay [2] and in assay [3] were 2.38 µM, 1.15 µM and 1.4 µM, respectively.
In the case of `CC(=O)NCCCC[C@H](NC(C)=O)C(=O)N[C@@H](CCCCNC(C)=S)C(=O)N[C@@H](CCc1ccccc1)C(N)=O`, the IC50 in assay [1] worked out at 0.65 µM; in assay [2] it was 1.45 µM.
`CC(=O)NCCCC[C@H](NC(C)=O)C(=O)N[C@@H](CCCCNC(C)=S)C(=O)N[C@@H](Cc1ccc2ccccc2c1)C(N)=O`: the IC50 in [1] is 2.26 µM; in assay [2] it was 0.64 µM; in [3] it was 2.1 µM.
Turning to `CC(=O)NCCCC[C@H](NC(=O)[C@H](CCCCNC(C)=S)NC(=O)[C@H](Cc1ccc(-c2ccccc2)cc1)NC(C)=O)C(N)=O`, the figures for the IC50 in assay [1] and in [2] were 4.5 µM and 3.03 µM, respectively.
In the case of `CC(=O)NC[C@H](NC(=O)[C@H](CCCCNC(C)=S)NC(=O)[C@H](CNC(C)=O)NC(C)=O)C(N)=O`, the IC50 in assay [1] turned out to be 11.9 µM; in assay [2] it was 6.6 µM; in [3] it was 1.8 µM. In addition, the Ratio IC50 came out at 3.7 in the assay filed under Homo sapiens [6] and 6.6 in the assay listed under Homo sapiens [8].
Regarding `CC(=O)NCCCC[C@H](NC(=O)[C@H](CCCCNC(C)=S)NC(=O)[C@H](CNC(C)=O)NC(C)=O)C(N)=O`, the IC50 in assay [1] is 7.76 µM; in assay [2] it was 6.86 µM; in [3], 1 µM.
For `CC(=O)NCCCC[C@H](NC(=O)[C@H](CCCCNC(C)=S)NC(=O)[C@H](Cc1ccc2ccccc2c1)NC(C)=O)C(N)=O`, the results for the IC50 in assay [4], in assay [5] and in [9] were 12 µM, 1.29 µM and 12.6 µM, respectively.

The values are drawn from ChEMBL document CHEMBL3608247, “Human SIRT3 tripeptidic inhibitors containing N(ε)-thioacetyl-lysine” (Bioorg Med Chem Lett, 2015).
